According to patent US20240415804A1, “METHOD OF TREATING PANCREATIC CANCER” (University of South Florida, priority 2022, published 2024):

Columns and labels:
Conditions in all cases: miR-155 inhibitor 100 nM, 24 h, vs scrambled miRNA
[1] = tested on: miR-155; assay: miR-155 gene expression by RT-qPCR in MiaPaCa-2 cells; assay type: cell-based, human
Procedure: (§1) MiR-155 is known to be overexpressed in different cancers, including PC^21, 23. The inventors first assessed whether apigenin could modulate the expression of miR-155 in PC cells. Murine PC cell lines Panc02 and UN-KC-6141 as well as the human PC cell line MiaPaCa-2 were treated with API (40 μM) or DMSO vehicle for 24 h and the expression of miR-155 was examined using RT-qPCR assay. […] Since API is known to inhibit the growth of cancer cells, including PC cells^39-43, 47-50, the same PC cell lines were treated with API (40 μM) or DMSO (vehicle) for 24 h and examined cell viability using MTT assay. […] Moreover, Panc02 and UN-KC-6141 cells were then treated with API at a dose dependent concentration (10, 20, 30, 40, 50 μM) and detected apoptosis using flow cytometry (Annexin V and PI).
(§2) miR-155 is implicated in the development of pancreatic tumors from pancreatic intraepithelial neoplasia (PanIN) lesions, and is overexpressed in PC^23. The inventors examined whether the depletion of miR-155 modulated PC viability. Murine and human PC cell lines were transfected with miR-155 inhibitor (i.e., MMU-MIR-155-5P/HSA-MIR-155-5P) and scrambled miRNA at a concentration of 100 nM for 24 h and cell viability determined using an MTT assay. The expression of miR-155 was examined using an RT-qPCR assay as well. […]

[2] = tested on: MiaPaCa-2 cells; assay: MTT cell viability assay, MiaPaCa-2; assay type: cell-based, human
Procedure: (§3) The methyl thiazol tetrazolium (MTT) assay was performed as described previously^58. Briefly, MiaPaCa-2, Panc02 and UN-KC-6141 cells were seeded in 96-well plates at a density of 3000 cells/well and allowed to attach overnight. PC cells were then treated with API (40 μM) or DMSO (1%) as vehicle control for 24 h at 37° C. in 5% CO2 incubator. After 24 h, media was replaced with 20 μL of MTT (1 mg/mL) (Sigma-Aldrich) and incubated for 3 h at 37° C. in 5% CO2. MTT was replaced with DMSO, and absorbance was read at 570 nm.
(§4) MiaPaCa-2, Panc02 and UN-KC-6141 cells (2×10^5) were grown in 2 mL of growth medium in a 6-well tissue culture plate for 18-24 h until 60-80% confluency. The following solutions were prepared: Solution A) For each transfection, diluted 1 μL of miRNA-155 inhibitors (1 μM) (Table 2) or scrambled negative control miRNA (1 μM) (Qiagen, Germantown, MD, USA) into 50 μL Opti-MEM Transfection Medium (Invitrogen, Waltham, MA, USA). Solution B) For each transfection, diluted 3 μL of Hi-Perfect Transfection Reagent into 50 μL Opti-MEM Transfection Medium. Solution A was added directly to Solution B, mixed gently and the mixture incubated for 10-15 min at room temperature. […]

[3] = tested on: miR-155; assay: miR-155 gene expression by RT-qPCR in Panc02 cells; assay type: cell-based, mouse
Procedure: as §1, §2

[4] = tested on: Panc02 cells; assay: MTT cell viability assay, Panc02; assay type: cell-based, mouse
Procedure: as §3, §4

[5] = tested on: miR-155; assay: miR-155 gene expression by RT-qPCR in UN-KC-6141 cells; assay type: cell-based, mouse
Procedure: as §1, §2

[6] = tested on: UN-KC-6141 cells; assay: MTT cell viability assay, UN-KC-6141; assay type: cell-based, mouse
Procedure: as §3, §4

Substance | miR-155 gene expression [1] | cell viability (MTT) [2] | miR-155 gene expression [3] | cell viability (MTT) [4] | miR-155 gene expression [5] | cell viability (MTT) [6]
HSA-MIR-155-5P: Qiagen miRCURY LNA miRNA inhibitor (human), sequence 5′-3′ CCTATCACGATTAGCATT, SEQ ID NO: 2 (LNA-modified commercial inhibitor, pattern not given here; listed 3' to 5'; listed as Homo sapiens) [reference compound] | significantly depleted | suppressed | – | – | – | –
MMU-MIR-155-5P: Qiagen miRCURY LNA miRNA inhibitor (mouse), sequence 5′-3′ CCCCTATCACAATTACCATT, SEQ ID NO: 1 (CCCCTATCACAATTAGCATT; LNA-modified commercial inhibitor, pattern not given here; listed 3' to 5'; listed as Mus musculus) [reference compound] | – | – | significantly depleted | suppressed | significantly depleted | suppressed
